Experiments:
[1] = tested on: HeV-mediated fusion (HeLa cells expressing HeV F and G, U373 target cells)
[2] = tested on: NiV-mediated fusion (HeLa cells expressing NiV F and G, U373 target cells)
live NiV = details: 56 μM

Compound	Inhibition of HeV-mediated fusion (in words) [1]	Inhibition of NiV-mediated fusion (in words) [2]	% Inhibition of focus formation (live NiV) [%]	IC50 [1] [nM]	IC50 [2] [nM]
CC[C@H](C)[C@H](NC(=O)[C@H](CCCCN)NC(=O)[C@H](CCC(N)=O)NC(=O)[C@H](C)NC(=O)[C@H](CCC(=O)O)NC(=O)[C@H](CCCCN)NC(=O)[C@@H](NC(=O)[C@H](Cc1ccc(O)cc1)NC(=O)[C@H](CC(=O)O)NC(=O)[C@H](CCCCN)NC(=O)[C@H](CO)NC(=O)[C@H](CCC(N)=O)NC(=O)[C@H](CCC(N)=O)NC(=O)[C@H](CC(C)C)NC(=O)[C@H](CO)NC(=O)[C@H](CCC(N)=O)NC(=O)[C@H](CC(N)=O)NC(=O)[C@H](CCSC)NC(=O)[C@H](CO)NC(=O)[C@H](CO)NC(=O)[C@@H](NC(=O)[C@H](CCC(N)=O)NC(=O)[C@H](CO)NC(=O)[C@H](CO)NC(=O)[C@@H](NC(=O)[C@H](CC(=O)O)NC(=O)[C@@H](NC(=O)[C@H](CCCCN)NC(=O)[C@H](CC(=O)O)NC(=O)[C@@H](NC(=O)[C@H](Cc1ccc(O)cc1)NC(=O)[C@@H](NC(=O)[C@@H]1CCCN1C(=O)[C@@H]1CCCN1)C(C)C)[C@@H](C)O)C(C)C)[C@@H](C)CC)[C@@H](C)CC)[C@@H](C)CC)C(=O)N[C@@H](CC(C)C)C(=O)N[C@@H](CC(=O)O)C(=O)N[C@H](C(=O)N[C@H](C(=O)N[C@@H](CC(N)=O)C(=O)N1CCC[C@H]1C(=O)N[C@@H](CO)C(=O)N[C@@H](CC(C)C)C(=O)O)C(C)C)[C@@H](C)O [FC1]	completely inhibit HeV-mediated fusion in the nM range	capable of inhibiting recombinant NiV-mediated fusion at slightly lower efficiencies	91.8	–	–
CC[C@H](C)[C@H](NC(=O)[C@H](CCCCN)NC(=O)[C@H](CCC(N)=O)NC(=O)[C@H](C)NC(=O)[C@H](CCC(=O)O)NC(=O)[C@H](CCCCN)NC(=O)[C@@H](NC(=O)[C@H](Cc1ccc(O)cc1)NC(=O)[C@H](CC(=O)O)NC(=O)[C@H](CCCCN)NC(=O)[C@H](CO)NC(=O)[C@H](CCC(N)=O)NC(=O)[C@H](CCC(N)=O)NC(=O)[C@H](CC(C)C)NC(=O)[C@H](CO)NC(=O)[C@H](CCC(N)=O)NC(=O)[C@H](CC(N)=O)NC(=O)[C@H](CCSC)NC(=O)[C@H](CO)NC(=O)[C@H](CO)NC(=O)[C@@H](NC(=O)[C@H](CCC(N)=O)NC(=O)[C@H](CO)NC(=O)[C@H](CO)NC(=O)[C@@H](NC(=O)[C@H](CC(=O)O)NC(=O)[C@@H](NC(=O)[C@H](CCCCN)NC(=O)[C@H](CC(=O)O)NC(=O)[C@@H](NC(=O)[C@H](Cc1ccc(O)cc1)NC(=O)[C@@H](NC(=O)[C@@H]1CCCN1C(=O)[C@@H]1CCCN1)C(C)C)[C@@H](C)O)C(C)C)[C@@H](C)CC)[C@@H](C)CC)[C@@H](C)CC)C(=O)N[C@@H](CC(C)C)C(=O)N[C@@H](CC(=O)O)C(=O)N[C@H](C(=O)N[C@H](C(=O)N[C@@H](CC(N)=O)C(=O)N1CCC[C@H]1C(=O)N[C@@H](CO)C(=O)N[C@@H](CC(C)C)C(=O)O)C(C)C)[C@@H](C)O [HeV FC2]	completely inhibitory in the nM range	completely inhibitory in the nM range	–	5.2 to 5.8	5.2 to 5.8
KPYTQSDVSMISLQSQKSINSLPSQIKDYVQKTVILAEDNP [ScHeV FC2, reference compound]	no inhibitory effect	no inhibitory effect	–	–	–

From patent US8114410B2, “Composition and methods for the inhibition of membrane fusion by paramyxoviruses” (priority 2001, dated 2012)
